Experimental data reported in US20060276460A1, “Use of piperazine phenothiazine derivatives in the manufacture of a medicament with neuroprotector and/or neurotrophic effects on cns and/or pns” (priority 2003, published 2006).

Columns and labels:
mesencephalic neurons = settings: 250 nmol/l
Experimental: Cortical neurons are involved in Alzheimer's disease and also in mesencephale neurons or dopaminergic neurons which are themselves involved in Parkinson's disease. (see also protocol described by Y. Mitsumotol, A. Watanabe, T. Miyauchi, F. Jimma, and T. Moriizumi in Stimulation of the regrowth of MPP+/damaged dopaminergic fibers by the treatment of mesencephalic cultures with basigin; J Neural Transm (2001) 108: 1127-1134).
The neuroprotective activity is assessed on MPP+ induced mesencephalic neuron loss with flufenazine concentration of 250 nmol/l
The cells are intoxicated by 2 micromol of MPP+ as neurotoxic during 24 h. The cell culture is then treated with 250 nm/l of flufenazine.
The percentage of mesencephalic neuronal survival obtained when intoxicated cells cultures are incubated with flufenazine is compared to cell cultures without flufenazine.

SOD mice = experiment: Survival rate of SOD mice after oral administration; type: in vivo
Experimental: In vivo studies were conducted on transgenic animals with ALS causing mutations, a model for neurodegenerative diseases according to protocols described by Gurney Me, Pu H, Chiu Ay, Dal Canto Mc, Polchow Cy, Alexander Dd, Caliendo J, Hentati A, Kwon Yw, Deng Hx, et al. in Motor neuron degeneration in mice that express a human Cu,Zn superoxide dismutase mutation. Science (1994) 264:1772-1775; and by Mohajeri Mh, Figlewicz Da, Bohn Mc in Selective loss of alpha motoneurons innervating the medial gastrocnemius muscle in a model of amyotrophic lateral sclerosis. Exp. Neurol. (1998) 150:329-336.
Mice are used at 4 months of age i.e. about 2 weeks before the appearance of the first symptoms.
They are genotyped for SOD1 gene using PCR method.
Animals are assigned into four groups to receive a daily oral administration of 1)saline as control, 2) 0.1 mg/kg, 3) 1 mg/kg, 4) 10 mg/kg of flufenazine, until death by weakness and paralysis occurs.
Survival rate was recorded on a daily basis.

cortical neurons [1] = experiment: Neurotrophic assay, neurite outgrowth in cortical neuronal cultures; type: cell-based, Wistar rats; settings: 200 nmol/l; 24 h exposure
Excerpt: The neurotrophic effect i.e. the neurite outgrowth with flufenazine was investigated on both cortical and spinal cord neuronal cultures according to the protocol described by Lucius R, Sievers J. in Postnatal retinal ganglion cells in vitro: protection against reactive oxygen species (ROS)-induced axonal degeneration by cocultured astrocytes Brain Res Dec. 16, 1996;743(1-2):56-62.
(§1) Two types of primary neuronal cell cultures i.e. cortical and spinal cord neurons are isolated from 15-17 days old foetuses of female Wistar rats and cultured in neurobasal/B27 medium until cell differentiation.
The ability of flufenazine to induce neurite outgrowth is investigated both in cortical and spinal cord neuronal cultures after 24 h exposure to flufenazine.
The neurite length as well as the percentage of cells with neurites are quantified by careful microscopic inspection. On cortex neurons type, the results are depicted in FIG. 4; the cortex neurotrophic effect of flufenazine (200 nmol/l) is expressed as an increase of 30% on neurites length compared to the neurites length in the control cortex neurons

cortical neurons [2] = experiment: Glutamic acid intoxication assay (LDH release); type: cell-based, Wistar rats
Experimental: Further studies were conducted on cortical neurons intoxicated with glutamic acid according to the protocol described by Nilsen J. and Brinton R D in Impact of progestins on oestrogen-induced neuroprotection:synergy by progesterone and 19-norprogesterone and antagonism by medoxyprogesterone acetate. Endocrinology 143:205-212 2002.
as §1
The neuroprotective activity is assessed on glu-induced cortical neurons loss. The process of death is initiated by 10 min treatment of neuron cell cultures with neurotoxic concentration of glutamic acid at 100 micromol/l.
The ability of flufenazine to reverse the death process is achieved by subsequent exposure of cells to flufenazine concentrations of 100 and 200 nmol/l. The quantity of LDH released is used to estimate the degree of intoxication and the decrease of quantity released is proportional at cellular resistance to Glu neurotoxicity.
the percentage of neuronal survival obtained when intoxicated cells cultures are incubated with flufenazine is compared to cell cultures without flufenazine.

[3] = tested on: spinal cord motoneuron cell culture; experiment: Neuronal survival and proliferation of spinal cord motoneuron cell culture; type: cell-based, Wistar rats; settings: 50, 100, 250 nmol/l; counted at 2-120 hours; compared to cultures with BDNF alone
Experimental: In vitro studies were first conducted on spinal cord motoneurons which are involved in peripheral neuropathy diseases as for example amyotrophic lateral sclerose (ALS) according to protocols described by Martinou J. C., Martinou I., Kato A. C. in Cholinergic differentiation factor (CDF/LIF) promotes survival of isolated rat embryonic motoneurons in vitro.
Cells cultures are incubated with different Fluphenazine N-Mustard dihydrochloride concentrations: 50, 100, 250 nmol/l.
Neuronal survival is then monitored at different time points; 2, 24, 48, 72, 96, 120 hours by counting the number of cells under microscope.
the percentage of neuronal survival obtained when cells cultures are incubated with flufenazine is compared to cell cultures incubated alone only with 50 microgram's of brain derived neurotrophic factor (BDNF).

OCCN1CCN(CCCN2c3ccccc3Sc3ccc(C(F)(F)F)cc32)CC1 [flufenazine, 4-[3-[2-(trifluoromethyl)-10H-phenothiazin-10-yl]propyl]-1-pyperazine-ethanol]
neurite expansion versus control neurons (mesencephalic neurons): longer neurite expansion than in control neurons | reversal of MPP+ induced neuronal loss (mesencephalic neurons): reverses MPP+ induced neuronal loss to the same extent as Riluzole | increase of TH positives cells (mesencephalic neurons; after 2 micromol MPP+ during 24 h, observed after 48 hours): 30% | survival of SOD mice compared to saline treated group (SOD mice; 0.1 mg/kg daily oral): enhanced the survival | survival of SOD mice compared to saline treated group (SOD mice; 1 mg/kg daily oral): enhanced the survival | survival of SOD mice compared to saline treated group (SOD mice; 10 mg/kg daily oral): adverse effect and induced a leftward shift in the survival curve | increase on neurites length compared to control cortex neurons (cortical neurons [1]): 30% | increase of percentage of neuronal survival after glutamic acid intoxication (cortical neurons [2]; 200 nmol/l, after 10 min glutamic acid 100 micromol/l, compared to cultures without flufenazine): 10% | effect on cell survival in the absence of neurotoxic compound (cortical neurons [2]; no glutamic acid, FIG. 2 left part): no or very slight effect | percentage of neuronal survival [3]: increase regularly from 48 h until 120 h
